Data as given in patent US9321782B2, “Process for preparation of novel 42-O-(heteroalkoxyalkyl) rapamicin compounds with anti-proliferative properties” (MERIL LIFE SCIENCES PVT. LTD., priority 2010, dated 2016).

Columns and labels:
[1] = Stability analysis (HPLC purity on storage) with various concentrations of BHT at 40° C.; type: physicochemical; conditions: sealed container
Procedure: (§1) To check the purity of the 42-O-(heteroalkoxyalkyl) rapamycin compounds the following condition was followed by using High Performance Liquid Chromatography, Phenomenex Synergi Hydro-RP 80a (250×4.6 ) mm, 4 micron column. The mobile phase was 65:15:20 methanol:acetonitile:water mixture. The detector was set at 276 nm and the flow rate was adjusted to 1.5 mL/min. Column temperature was 40° C. 2.0 μg of 42-O-(heteroalkoxyalkyl) rapamycin compounds was injected onto the column in a volume of 5.0 μL methanol with run time of 50 min.
The inventors have also conducted the stability study of various 42-O-(heteroalkoxyalkyl) rapamycin compounds as mentioned above using various BHT concentrations. The study was conducted at 40° C. temperature in sealed container for 8 weeks.
42-O-(heteroalkoxyalkyl) rapamycin compounds obtained as per procedure described in Example 1 are respectively added with anti-oxidant, namely Butylated Hydroxytoluene (or BHT), at a concentration of 0.1%, 0.2%, 0.5%, and 1.0% (w/w) based on 100% (w/w) of 42-O-(heteroalkoxyalkyl) rapamycin compounds in sealed container to study the stability at 40° C. temperature. […] The purity data with the addition of different amounts of anti-oxidant as added to 42-O-(tetrahydrofuran-3-yl) rapamycin compound, 42-O-(oxetan-3-yl) rapamycin compound and 42-O-(tetrahydropyran-3-yl) rapamycin compound checked at different time intervals are summarized in Table 2B as below mentioned.

[2] = Stability analysis (HPLC purity on storage) without BHT at various temperatures; type: physicochemical; conditions: without BHT
Procedure: as §1
The purity loss was higher at increased temperature, but there was no apparent change in the impurity profile. Table 2A presents the purity of various 42-O-(heteroalkoxyalkyl) rapamycin compounds at different time intervals and temperature conditions.

Purity (%) ([1]; BHT 0.0% (w/w), 0 week): 97.5%
Purity (%) ([1]; BHT 0.0% (w/w), 2 weeks): 94.4%
Purity (%) ([1]; BHT 0.0% (w/w), 4 weeks): 93.7%
Purity (%) ([1]; BHT 0.0% (w/w), 8 weeks): 92.3%
Purity (%) ([1]; BHT 0.1% (w/w), 0 week): 97.5%
Purity (%) ([1]; BHT 0.1% (w/w), 2 weeks): 95.9%
Purity (%) ([1]; BHT 0.1% (w/w), 4 weeks): 94.3%
Purity (%) ([1]; BHT 0.1% (w/w), 8 weeks): 93.6%
Purity (%) ([1]; BHT 0.2% (w/w), 0 week): 97.6%
Purity (%) ([1]; BHT 0.2% (w/w), 2 weeks): 96.3%
Purity (%) ([1]; BHT 0.2% (w/w), 4 weeks): 95.6%
Purity (%) ([1]; BHT 0.2% (w/w), 8 weeks): 94.1%
Purity (%) ([1]; BHT 0.5% (w/w), 0 week): 97.3%
Purity (%) ([1]; BHT 0.5% (w/w), 2 weeks): 96.5%
Purity (%) ([1]; BHT 0.5% (w/w), 4 weeks): 95.9%
Purity (%) ([1]; BHT 0.5% (w/w), 8 weeks): 94.5%
Purity (%) ([1]; BHT 1.0% (w/w), 0 week): 97.4%
Purity (%) ([1]; BHT 1.0% (w/w), 2 weeks): 96.6%
Purity (%) ([1]; BHT 1.0% (w/w), 4 weeks): 95.6%
Purity (%) ([1]; BHT 1.0% (w/w), 8 weeks): 94.9%
Purity (%) ([2]; 5° C. (sealed), 00 weeks after synthesis): 97.3%
Purity (%) ([2]; 5° C. (sealed), 02 weeks after synthesis): 96.0%
Purity (%) ([2]; 5° C. (sealed), 04 weeks after synthesis): 95.4%
Purity (%) ([2]; 5° C. (sealed), 08 weeks after synthesis): 94.5%
Purity (%) ([2]; 5° C. (sealed), 12 weeks after synthesis): 93.9%
Purity (%) ([2]; 25° C. (sealed), 00 weeks after synthesis): 97.6%
Purity (%) ([2]; 25° C. (sealed), 02 weeks after synthesis): 95.7%
Purity (%) ([2]; 25° C. (sealed), 04 weeks after synthesis): 95.2%
Purity (%) ([2]; 25° C. (sealed), 08 weeks after synthesis): 94.6%
Purity (%) ([2]; 25° C. (sealed), 12 weeks after synthesis): 93.5%
Purity (%) ([2]; 25° C. (unsealed), 00 weeks after synthesis): 97.0%
Purity (%) ([2]; 25° C. (unsealed), 02 weeks after synthesis): 95.3%
Purity (%) ([2]; 25° C. (unsealed), 04 weeks after synthesis): 94.5%
Purity (%) ([2]; 25° C. (unsealed), 08 weeks after synthesis): 93.8%
Purity (%) ([2]; 25° C. (unsealed), 12 weeks after synthesis): 93.1%
Purity (%) ([2]; 40° C. (sealed), 00 weeks after synthesis): 97.5%
Purity (%) ([2]; 40° C. (sealed), 02 weeks after synthesis): 94.4%
Purity (%) ([2]; 40° C. (sealed), 04 weeks after synthesis): 93.7%
Purity (%) ([2]; 40° C. (sealed), 08 weeks after synthesis): 92.3%
Purity (%) ([2]; 40° C. (sealed), 12 weeks after synthesis): 91.6%
SMILES: COC1CC(C[C@H](C)[C@@H]2CC(=O)[C@H](C)/C=C(\C)C(O)[C@@H](OC)C(=O)[C@H](C)C[C@H](C)/C=C/C=C/C=C(\C)[C@@H](OC)C[C@@H]3CC[C@@H](C)[C@@](O)(O3)C(=O)C(=O)N3CCCC[C@H]3C(=O)O2)CCC1OC1CCCOC1 (stereo partly shown) [Merilimus-3, 42-O-(tetrahydropyran-3-yl) rapamycin]
